For 22 compounds, EC50 results are on record in patent US20240228488A1 (TAKEDA PHARMACEUTICAL COMPANY LIMITED, priority 2021, published 2024).

Each structure is given as a SMILES string. Where only a bound is given, the exact number is not on record here.

Sequence of human activated kallikrein enzyme (P03952 391-638 limits assumed): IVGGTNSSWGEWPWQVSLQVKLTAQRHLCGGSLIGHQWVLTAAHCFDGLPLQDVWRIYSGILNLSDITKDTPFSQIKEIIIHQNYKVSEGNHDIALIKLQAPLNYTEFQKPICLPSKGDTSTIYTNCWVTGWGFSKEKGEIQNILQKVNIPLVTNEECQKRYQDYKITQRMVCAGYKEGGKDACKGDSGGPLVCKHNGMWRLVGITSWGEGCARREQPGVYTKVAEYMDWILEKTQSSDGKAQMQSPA
Sequence of human activated kallikrein enzyme (P03952 20-390 partner limits assumed): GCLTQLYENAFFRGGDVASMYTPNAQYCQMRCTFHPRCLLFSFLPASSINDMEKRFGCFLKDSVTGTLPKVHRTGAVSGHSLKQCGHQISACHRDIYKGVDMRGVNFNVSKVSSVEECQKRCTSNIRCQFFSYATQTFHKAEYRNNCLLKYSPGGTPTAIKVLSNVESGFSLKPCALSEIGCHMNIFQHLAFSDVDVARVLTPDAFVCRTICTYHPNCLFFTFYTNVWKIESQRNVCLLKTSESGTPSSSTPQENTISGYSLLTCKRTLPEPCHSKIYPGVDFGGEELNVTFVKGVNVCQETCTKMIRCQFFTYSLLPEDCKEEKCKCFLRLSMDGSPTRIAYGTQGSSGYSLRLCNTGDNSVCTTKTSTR

This test deals with human activated kallikrein enzyme (Homo sapiens, UniProt P03952). The test can be described thus: Plasma kallikrein inhibition, fluorogenic PFR-AMC substrate, 500 pM activated kallikrein format. It counts as biochemical. The note with it: 500 pM activated kallikrein, 300 uM PFR-AMC, 30 min preincubation, 10 min reaction; read-out: Primary Dose Response Assay: Average EC50. The essentials:
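Enzyme (500 pM) was preincubated with inhibitor for 30 min at room temperature in 20 mM Tris pH 7.5, 1 mM EDTA, 150 mM NaCl, 0.1% PEG-400 and 0.1% Triton X-100. The reaction was started with 300 uM PFR-AMC, run 10 min, and fluorescence read at 460 nm (380 nm excitation). EC50 derived.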
On to `CCOC(=O)Cc1cc(C2CC2)cn2cc(CNc3ccnc(NC(=O)[C@H]4C[C@@H]4c4cccc(Cl)c4)c3)nc12` [Example I-241, ethyl 2-(2-(((2-((1S,2S)-2-(3-chlorophenyl)cyclopropane-1-carboxamido)pyridin-4-yl)amino)methyl)-6-cyclopropylimidazo[1,2-a]pyridin-8-yl)acetate], for which the EC50 was less than 1 nM.

For the compound `Cc1ccnc([C@H]2C[C@@H]2C(=O)Nc2cc(N[C@H](C)c3cn4cc(C5CC5)cc(N5CC6(CN(C)C6)N(C)C5=O)c4n3)ncn2)n1` [Example I-245, (1S,2S)-N-(6-(((R)-1-(6-cyclopropyl-8-(2,5-dimethyl-6-oxo-2,5,7-triazaspiro[3.4]octan-7-yl)imidazo[1,2-a]pyridin-2-yl)ethyl)amino)pyrimidin-4-yl)-2-(4-methylpyrimidin-2-yl)cyclopropane-1-carboxamide], the EC50 is less than 1 nM.

Turning to `Cc1cc(NC(=O)[C@H]2C[C@@H]2c2nccc(C)n2)cc(N[C@H](C)c2cn3cc(C4CC4)cc(N4CC(=O)N(C)C4=O)c3n2)n1` [Example I-246, (1S,2S)-N-(2-(((R)-1-(6-cyclopropyl-8-(3-methyl-2,4-dioxoimidazolidin-1-yl)imidazo[1,2-a]pyridin-2-yl)ethyl)amino)-6-methylpyridin-4-yl)-2-(4-methylpyrimidin-2-yl)cyclopropane-1-carboxamide], the EC50 is less than 1 nM.

As to `Cc1ccnc([C@H]2C[C@@H]2C(=O)Nc2cc(NCc3cn4cc(C5CC5)cc(N5CC(=O)N(C)C5=O)c4n3)c(Cl)nn2)n1` [Example I-247, (1S,2S)-N-(6-chloro-5-(((6-cyclopropyl-8-(3-methyl-2,4-dioxoimidazolidin-1-yl)imidazo[1,2-a]pyridin-2-yl)methyl)amino)pyridazin-3-yl)-2-(4-methylpyrimidin-2-yl)cyclopropane-1-carboxamide], the EC50 is 1 to 10 nM.

With `O=C(Nc1cc(N2C[C@H](O)C[C@@H]2c2cn3cc(C4CC4)ccc3n2)ncn1)[C@H]1C[C@@H]1c1cccc(Cl)c1` [Example I-250, (1S,2S)-2-(3-chlorophenyl)-N-(6-((2R,4R)-2-(6-cyclopropylimidazo[1,2-a]pyridin-2-yl)-4-hydroxypyrrolidin-1-yl)pyrimidin-4-yl)cyclopropane-1-carboxamide], the EC50 is greater than 6000 nM.

As for `O=C(Nc1cc(N2CCC[C@@H]2c2cn3cc(C4CC4)ccc3n2)ncn1)[C@H]1C[C@@H]1c1cccc(Cl)c1` [Example I-251, (1S,2S)-2-(3-chlorophenyl)-N-(6-((R)-2-(6-cyclopropylimidazo[1,2-a]pyridin-2-yl)pyrrolidin-1-yl)pyrimidin-4-yl)cyclopropane-1-carboxamide], the EC50 fell in the range of 10 to 100 nM.

In the case of `CN1CCN(c2cc(Cl)cn3cc(CNc4ccnc(NC(=O)[C@H]5C[C@@H]5c5cccc(Cl)c5)c4)nc23)CC1` [Example I-252, (1S,2S)-N-(4-(((6-chloro-8-(4-methylpiperazin-1-yl)imidazo[1,2-a]pyridin-2-yl)methyl)amino)pyridin-2-yl)-2-(3-chlorophenyl)cyclopropane-1-carboxamide], the EC50 is less than 1 nM.

Consider `O=C(Nc1cc(NCc2cn3cc(Cl)ccc3n2)ccn1)[C@H]1C[C@@H]1c1cccc(Cl)c1` [Example I-253, (1S,2S)-N-(4-(((6-chloroimidazo[1,2-a]pyridin-2-yl)methyl)amino)pyridin-2-yl)-2-(3-chlorophenyl)cyclopropane-1-carboxamide], for which the EC50 lay in the range of 1 to 10 nM.

Turning to `CN1CCN(c2cc(C3CC3)cn3cc(CNc4cncc(NC(=O)[C@H]5C[C@@H]5c5cccc(Cl)c5)n4)nc23)CC1` [Example I-255, (1S,2S)-2-(3-chlorophenyl)-N-(6-(((6-cyclopropyl-8-(4-methylpiperazin-1-yl)imidazo[1,2-a]pyridin-2-yl)methyl)amino)pyrazin-2-yl)cyclopropane-1-carboxamide], the EC50 lay within 1 to 10 nM.

In the case of `Cc1ccnc([C@H]2C[C@@H]2C(=O)Nc2cc3c(cn2)nnn3Cc2cn3cc(C4CC4)cc(N4CC(=O)N(C)C4=O)c3n2)n1` [Example I-635, (1S,2S)—N-(1-((6-cyclopropyl-8-(3-methyl-2,4-dioxoimidazolidin-1-yl)imidazo[1,2-a]pyridin-2-yl)methyl)-1H-[1,2,3]triazolo[4,5-c]pyridin-6-yl)-2-(4-methylpyrimidin-2-yl)cyclopropane-1-carboxamide], the EC50 was less than 1 nM.

In the case of `Cc1cc(NCc2cn3cc(C4CC4)cc(N4CC(=O)N(C)C4=O)c3n2)cc(NC(=O)[C@H]2C[C@@H]2c2nccc(C)n2)n1` [Example I-642, (1S,2S)—N-(4-(((6-cyclopropyl-8-(3-methyl-2,4-dioxoimidazolidin-1-yl)imidazo[1,2-a]pyridin-2-yl)methyl)amino)-6-methylpyridin-2-yl)-2-(4-methylpyrimidin-2-yl)cyclopropane-1-carboxamide], the EC50 is less than 1 nM.

Turning to `Cc1ccnc([C@H]2C[C@@H]2C(=O)Nc2cccc(OCc3cn4cc(C5CC5)cc(N5CC(=O)N(C)C5=O)c4n3)c2)n1` [Example I-643, (1S,2S)—N-(3-((6-cyclopropyl-8-(3-methyl-2,4-dioxoimidazolidin-1-yl)imidazo[1,2-a]pyridin-2-yl)methoxy)phenyl)-2-(4-methylpyrimidin-2-yl)cyclopropane-1-carboxamide], the EC50 was less than 1 nM.

For `Cc1ccnc([C@H]2C[C@@H]2C(=O)Nc2cccc(NCc3cn4cc(C5CC5)cc(N5CC(=O)N(C)C5=O)c4n3)c2)n1` [Example I-644, (1S,2S)—N-(3-(((6-cyclopropyl-8-(3-methyl-2,4-dioxoimidazolidin-1-yl)imidazo[1,2-a]pyridin-2-yl)methyl)amino)phenyl)-2-(4-methylpyrimidin-2-yl)cyclopropane-1-carboxamide], the EC50 was less than 1 nM.

In the case of `Cc1ccnc([C@H]2C[C@@H]2C(=O)Nc2cccc(SCc3cn4cc(C5CC5)cc(N5CC(=O)N(C)C5=O)c4n3)c2)n1` [Example I-645, (1S,2S)—N-(3-(((6-cyclopropyl-8-(3-methyl-2,4-dioxoimidazolidin-1-yl)imidazo[1,2-a]pyridin-2-yl)methyl)thio)phenyl)-2-(4-methylpyrimidin-2-yl)cyclopropane-1-carboxamide], the EC50 lay within 10 to 100 nM.

For the compound `Cc1ccnc([C@H]2C[C@@H]2C(=O)Nc2cccc(S(=O)(=O)Cc3cn4cc(C5CC5)cc(N5CC(=O)N(C)C5=O)c4n3)c2)n1` [Example I-646, (1S,2S)—N-(3-(((6-cyclopropyl-8-(3-methyl-2,4-dioxoimidazolidin-1-yl)imidazo[1,2-a]pyridin-2-yl)methyl)sulfonyl)phenyl)-2-(4-methylpyrimidin-2-yl)cyclopropane-1-carboxamide], the EC50 is greater than 6000 nM.

As to `Cc1ccnc([C@H]2C[C@@H]2C(=O)Nc2cnnc(OCc3cn4cc(C5CC5)cc(N5CC(=O)N(C)C5=O)c4n3)c2)n1` [Example I-648, (1S,2S)—N-(6-((6-cyclopropyl-8-(3-methyl-2,4-dioxoimidazolidin-1-yl)imidazo[1,2-a]pyridin-2-yl)methoxy)pyridazin-4-yl)-2-(4-methylpyrimidin-2-yl)cyclopropane-1-carboxamide], the 50% effective concentration (EC50) was less than 1 nM.

Take `Cc1ccnc([C@H]2C[C@@H]2C(=O)Nc2nccn3nc(Cc4cn5cc(C6CC6)cc(N6CC(=O)N(C)C6=O)c5n4)cc23)n1` [Example I-649, (1S,2S)—N-(2-((6-cyclopropyl-8-(3-methyl-2,4-dioxoimidazolidin-1-yl)imidazo[1,2-a]pyridin-2-yl)methyl)pyrazolo[1,5-a]pyrazin-4-yl)-2-(4-methylpyrimidin-2-yl)cyclopropane-1-carboxamide]: the EC50 is less than 1 nM.

For the compound `Cc1ccnc([C@H]2C[C@@H]2C(=O)Nc2cc(NC(CO)c3cn4cc(C5CC5)cc(N5CC(=O)N(C)C5=O)c4n3)nc(C)n2)n1` (stereo partly drawn) [Example I-650, (1S,2S)—N-(6-((1-(6-cyclopropyl-8-(3-methyl-2,4-dioxoimidazolidin-1-yl)imidazo[1,2-a]pyridin-2-yl)-2-hydroxyethyl)amino)-2-methylpyrimidin-4-yl)-2-(4-methylpyrimidin-2-yl)cyclopropane-1-carboxamide], the EC50 is less than 1 nM.

In the case of `Cc1ccnc([C@H]2C[C@@H]2C(=O)Nc2nncc(NCc3cn4cc(C5CC5)cc(N5CC(=O)N(C)C5=O)c4n3)n2)n1` [Example I-651, (1S,2S)—N-(5-(((6-cyclopropyl-8-(3-methyl-2,4-dioxoimidazolidin-1-yl)imidazo[1,2-a]pyridin-2-yl)methyl)amino)-1,2,4-triazin-3-yl)-2-(4-methylpyrimidin-2-yl)cyclopropane-1-carboxamide], the 50% effective concentration (EC50) is less than 1 nM.

In the case of `Cc1cc(NC(=O)[C@H]2C[C@@H]2c2nccc(C)n2)nc(OCc2cn3cc(C4CC4)cc(N4CC(=O)N(C)C4=O)c3n2)n1` [Example I-652, (1S,2S)—N-(2-((6-cyclopropyl-8-(3-methyl-2,4-dioxoimidazolidin-1-yl)imidazo[1,2-a]pyridin-2-yl)methoxy)-6-methylpyrimidin-4-yl)-2-(4-methylpyrimidin-2-yl)cyclopropane-1-carboxamide], the EC50 was less than 1 nM.

Consider `Cc1ccnc([C@H]2C[C@@H]2C(=O)Nc2cc(CCc3cn4cc(C5CC5)cc(N5CC(=O)N(C)C5=O)c4n3)ccn2)n1` [Example I-653, (1S,2S)—N-(4-(2-(6-cyclopropyl-8-(3-methyl-2,4-dioxoimidazolidin-1-yl)imidazo[1,2-a]pyridin-2-yl)ethyl)pyridin-2-yl)-2-(4-methylpyrimidin-2-yl)cyclopropane-1-carboxamide], for which the EC50 is less than 1 nM.

Take `CCOC(=O)c1cnc(NC(=O)[C@H]2C[C@@H]2c2nccc(C)n2)nc1OCc1cn2cc(C3CC3)cc(N3CC(=O)N(C)C3=O)c2n1` [Example I-654, ethyl 4-((6-cyclopropyl-8-(3-methyl-2,4-dioxoimidazolidin-1-yl)imidazo[1,2-a]pyridin-2-yl)methoxy)-2-((1S,2S)-2-(4-methylpyrimidin-2-yl)cyclopropane-1-carboxamido)pyrimidine-5-carboxylate]: the EC50 was less than 1 nM.

What is called EC50 is the concentration at which the effect is half-maximal.
